The values below come from patent US10202388B2, “Fused-ring compounds, pharmaceutical composition and uses thereof” (SHANGHAI DE NOVO PHARMATECH CO., LTD., priority 2015, dated 2019).

Bounds are passed on as bounds.

The target of one test is Human recombinant IDO1 (Homo sapiens (Human), UniProt P14902). Nature of the test: IDO1 enzymatic assay (UV absorption at 321 nm). Type of test: biochemical. The note with it: human recombinant IDO1, 80 min incubation, room temperature; read-out: hIDO1 IC50. The procedure:
The detailed experimental method is as follow:
The compounds described in this disclosure were dissolved in 10% DMSO to predefined concentration. All of the reactions were conducted at room temperature in this disclosure. Human recombinant IDO1 (BPS Bioscience) was added so that its concentration was 200 nm in the reaction buffer solution (200 μL). […] 10 μL test compound solution was added into the above reaction solution (200 μL), so that the final concentration of DMSO in all reaction wells was 0.5%. % concentration was volume %. After 80 min incubation of the reaction solution, the UV absorbance was measured using TECAN Infinite M1000 plate reader. For the negative control (blank), 10 μl of the assay buffer was added instead of the IDO1
All reagents (excluding human recombinant IDO1) were purchased from Sigma Aldrich, MO, USA.
The percent activity in the presence of each compound was calculated according to the following equation: % activity=[(A−Ab)/(At−Ab)]×100, where A=the absorption signal in the presence of the compound, Ab=the absorption signal of blank, At=the absorption signal in the absence of the compound. […] The IC50 was calculated using non-linear regression in Graph Pad Prism® 4.

The next test deals with HeLa cell IDO1 (Homo sapiens (Human), UniProt P14902). Nature of the test: HeLa cell based IDO1 inhibition assay (kynurenine readout, IFN-γ induced). Particulars: HeLa cells. The method, then: HeLa cell line was purchased from ATCC, cultured in MEM/EBSS medium supplemented with 10% FBS, penn-step (100,000 U/L), non-essential amino acid (0.1 Mm), sodium pyruvate (1.0 Mm). Cells were cultured at 37° C., 95% humidity and 5% CO2. […] The detailed experimental method is as follow:
25,000 HeLa cells were placed on 96-well plates. Each well contained 100 μl culture medium, subsequently IFN-γ and test compounds at specific concentrations (concentration range between 10 μM and 1 Nm, so that the final volume of culture medium was 200 μL) were added and IFN-γ was used to induce IDO1 expression. After incubation, 140 μL supernatant was transferred to 96-well plates. After adding 6.1 N TCA (10 μL), the plates were continuously incubated at 50° C. for 30 min, to hydrolyze N-formylkynurenine produced by IDO to kynurenine. The reaction solution was then centrifuged at 2500 rpm for 10 min to remove precipitate. 100 μL/well supernatant was then transferred to another 96-well plate. 100 μL of 2% (w/v) 4-N,N-dimethyl aminobenzaldehyde acetic acid solution was added and incubated at room temperature for 10 min. The yellow color derived from kynurenine was recorded by measuring absorbance at 480 nm using a microplate reader (TECAN Infinite M1000 Pro).

For the next test, the target named is recombinant TDO2 (Homo sapiens (Human), UniProt P48775). In words: TDO2 enzymatic assay (UV absorption at 321 nm). The note with it: 50 nM TDO2, 200 μM tryptophan, 75 min. Type of test: biochemical. The method, then: The TDO2 enzymatic assay was performed by UV absorption using a recombinant TDO2 and L-Tryptophan substrate. The UV absorption signal at 321 nm is correlated with the amount of N-formylkynurenine reaction product of TDO2. The compounds were diluted in 10% DMSO and 5 μL of the dilution was added to a 100 μL reaction so that the final concentration of DMSO is 0.5% in all of reactions. All of the reactions were conducted at room temperature. The 100 μL reaction mixture in TDO2 Assay Buffer contains 50 nM TDO2, the indicated amount of the inhibitor, 200 μM tryptophan, and the coupled reaction components. The reaction mixture incubated for 75 min prior to reading the UV absorption signal. For the negative control (blank), 5 μl of the assay buffer was added instead of the TDO2.
Sequence of recombinant TDO2 (P48775 whole entry, species assumed): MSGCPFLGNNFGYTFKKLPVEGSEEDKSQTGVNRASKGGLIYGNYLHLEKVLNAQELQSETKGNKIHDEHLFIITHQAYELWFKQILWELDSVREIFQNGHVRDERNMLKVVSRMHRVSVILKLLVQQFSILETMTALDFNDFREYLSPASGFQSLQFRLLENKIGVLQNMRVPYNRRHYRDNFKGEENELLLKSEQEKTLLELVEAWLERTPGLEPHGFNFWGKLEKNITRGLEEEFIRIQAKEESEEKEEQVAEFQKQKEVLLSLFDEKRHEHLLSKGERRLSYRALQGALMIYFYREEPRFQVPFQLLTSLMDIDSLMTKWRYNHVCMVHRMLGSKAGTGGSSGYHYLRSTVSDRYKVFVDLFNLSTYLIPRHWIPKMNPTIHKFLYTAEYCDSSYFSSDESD
Absorption signals were measured using a Tecan Infinite M1000 plate reader. Binding experiments were performed in duplicate at each concentration. The percent activity in the presence of each compound was calculated according to the following equation: % activity=[(A−Ab)/(At−Ab)]×100, where A=the absorption signal in the presence of the compound, Ab=the absorption signal of blank, At=the absorption signal in the absence of the compound. […] The IC50 was calculated using non-linear regression in Graph Pad Prism® 4.

Another test relates to colon cancer MC38 cells. In words: Subcutaneous MC38 mouse colon cancer syngeneic model in C57BL/6 mice. Type of test: in vivo. The note with it: single agent, s.c. MC38 tumors in female C57BL/6 mice, FIG. 1. The method, then: Female mice (C57BL/6, 6-8 week old) were purchased from Shanghai Laboratory Animal Center, Chinese Academy of Sciences, Shanghai, China. Mice were housed under pathogen-free conditions with autoclaved rodent chow and water available ad libitum. Each mouse was inoculated s.c. with colon cancer MC38 cells in 0.1 mL PBS over the right lower flank. When the tumor volume reached 40 mm^3, mice were randomized based on initial tumor volume measurements and treated with either vehicle or compound 23A-3. Tumor volumes were measured with electronic digital caliper and calculated using the formula length (mm)×width (mm)^2/2 and expressed in mm^3. Student's t-test was used to evaluate the statistical significance of observed differences.

Sequence of Human recombinant IDO1 (P14902 whole entry): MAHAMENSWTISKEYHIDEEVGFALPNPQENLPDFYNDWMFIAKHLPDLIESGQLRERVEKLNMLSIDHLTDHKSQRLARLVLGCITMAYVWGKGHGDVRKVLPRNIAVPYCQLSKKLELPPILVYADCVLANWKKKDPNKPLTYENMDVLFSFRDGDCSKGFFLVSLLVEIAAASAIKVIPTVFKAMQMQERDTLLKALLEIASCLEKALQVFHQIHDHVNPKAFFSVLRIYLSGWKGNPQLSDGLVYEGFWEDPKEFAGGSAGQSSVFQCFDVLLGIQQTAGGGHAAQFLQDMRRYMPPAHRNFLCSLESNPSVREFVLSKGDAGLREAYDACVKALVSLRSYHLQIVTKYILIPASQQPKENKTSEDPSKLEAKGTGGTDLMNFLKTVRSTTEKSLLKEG
Sequence of HeLa cell IDO1 (P14902 whole entry): as above

Broadly, the IC50 is the point on the concentration scale where inhibition reaches its midpoint. With `OC1C2CC3CC1CC([C@@H](O)CC1c4c(F)cccc4-c4cncn41)(C3)C2` (stereo partly shown) [Compound 23A-3], the IC50 on Human recombinant IDO1 is below 100 nM; on HeLa cell IDO1, below 100 nM; on recombinant TDO2, below 500 nM. The “tumor growth inhibition (mean tumor volume versus dosing days)” value in the test with colon cancer MC38 cells is listed as “significant tumor growth inhibition effect”.

On to `O=S(=O)(Cc1ccccc1)NC1C2CC3CC1CC([C@H](O)CC1c4c(F)cccc4-c4cncn41)(C3)C2` (stereo partly shown) [Compound 45A-1], for which the IC50 on Human recombinant IDO1 is below 100 nM; against HeLa cell IDO1, below 100 nM; at recombinant TDO2, below 500 nM.

For `O=S(=O)(Cc1ccccc1)NC1C2CC3CC1CC([C@@H](O)CC1c4c(F)cccc4-c4cncn41)(C3)C2` (stereo partly shown) [Compound 45A-4], the figures for the IC50 at Human recombinant IDO1, against HeLa cell IDO1 and at recombinant TDO2 were 100 to 500 nM, 100 to 500 nM and 1000 to 10000 nM, respectively.

For the compound `OC1C2CC3CC1CC([C@H](O)CC1c4c(F)cccc4-c4cncn41)(C3)C2` (stereo partly shown) [Compound 26A-3], the IC50 on Human recombinant IDO1 was below 100 nM; at HeLa cell IDO1 it was below 100 nM; at recombinant TDO2 it was below 500 nM.

With `Nc1nonc1C(=NO)Nc1ccc(F)c(Cl)c1` [Ref. B, 4-amino-N-(3-chloro-4-fluorophenyl)-N′-hydroxy-1,2,5-oxadiazole-3-carboximidamide, reference compound], the IC50 at recombinant TDO2 was 10000 to 100000 nM.

As to `CC1(O)C2CC3CC1CC(C(O)CC1c4ccccc4-c4cncn41)(C3)C2` (stereo not shown) [Compound 11A-2], the IC50 at Human recombinant IDO1 is below 100 nM; on recombinant TDO2 it was below 500 nM.
